Measurements from US20250320213A1, “Nitrogen-Containing Heterocyclic Compounds” (Pfizer Inc., priority 2024, published 2025).

biological target: T1, STAT6 (Homo sapiens, UniProt P42226); assay: STAT6 Reporter Luciferase Assay (IL-13 stimulated HaCaT keratinocyte NanoLuc reporter cells); assay type: cell-based; conditions: IL-13 stimulated HaCaT STAT6 NanoLuc reporter cells; read-out: Reporter EC50
T1 construct: stably transfected HaCaT keratinocyte cell line, which expresses NanoLuc luciferase reporter gene under the transcriptional control of the STAT6 responsive promoter; endogenous in cells; host or cells: HaCaT keratinocyte reporter cell line (stably transfected with a NanoLuc reporter)
T1 sequence (P42226 1-847): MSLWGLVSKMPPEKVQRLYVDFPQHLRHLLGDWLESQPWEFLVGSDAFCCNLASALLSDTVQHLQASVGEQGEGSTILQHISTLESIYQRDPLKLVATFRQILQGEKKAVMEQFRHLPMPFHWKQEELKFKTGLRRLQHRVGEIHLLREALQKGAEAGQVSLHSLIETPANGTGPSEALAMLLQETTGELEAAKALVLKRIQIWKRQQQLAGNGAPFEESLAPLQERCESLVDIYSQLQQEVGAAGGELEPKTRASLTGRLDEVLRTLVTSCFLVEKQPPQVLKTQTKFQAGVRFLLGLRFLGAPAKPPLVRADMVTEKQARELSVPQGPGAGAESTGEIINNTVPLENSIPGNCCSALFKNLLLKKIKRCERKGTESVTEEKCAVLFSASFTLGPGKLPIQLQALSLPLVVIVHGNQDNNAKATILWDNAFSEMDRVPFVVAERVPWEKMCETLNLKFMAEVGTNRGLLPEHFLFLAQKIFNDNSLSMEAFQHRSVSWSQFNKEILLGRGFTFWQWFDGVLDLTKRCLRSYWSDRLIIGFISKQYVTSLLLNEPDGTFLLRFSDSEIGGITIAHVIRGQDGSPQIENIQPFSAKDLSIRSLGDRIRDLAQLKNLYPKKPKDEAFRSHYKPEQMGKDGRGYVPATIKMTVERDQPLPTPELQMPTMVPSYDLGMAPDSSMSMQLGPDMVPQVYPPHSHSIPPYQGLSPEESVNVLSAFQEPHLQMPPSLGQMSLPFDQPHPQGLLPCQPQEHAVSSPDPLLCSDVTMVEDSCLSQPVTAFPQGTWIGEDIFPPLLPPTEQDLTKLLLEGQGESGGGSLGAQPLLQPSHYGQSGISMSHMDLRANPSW
Protocol: Pharmacological measurements of STAT6 transcriptional activity through the IL-13-IL-13 receptor/IL-4 receptor pathway were made with a stably transfected HaCaT keratinocyte cell line, which expresses NanoLuc luciferase reporter gene under the transcriptional control of the STAT6 responsive promoter for IL-13Ra2. The readout of the STAT6 activity utilized Promega Nano-Glo Luciferase assay kit.
The reporter cells were cultured in a growth media comprised of DMEM High Glucose, no calcium and no glutamine, 10% heat inactivated fetal bovine serum (HI FBS), 1% 100× Glutamax, and 100 U/mL Penicillin-Streptomycin (units of penicillin in 1 mL of streptomycin). Seven thousand cells were plated in 25 microliter (μL) per well in a 384-well, white bottom, tissue culture plate. Cells were cultured overnight at 37° C. The next day, test compounds (solubilized and serially diluted in DMSO, in an 11 point, 4-fold dilution series in duplicate) were spotted, 60 nanoliters (nL) per well, into a 384 well v-bottom polypropylene plate. Thirty μL per well of 37° C. dosing media (Dulbecco's modified eagle medium (DMEM) High Glucose, no calcium and no glutamine with 2% HI FBS) was added to the compound plate. Growth media was removed from the cell plate, and the cells were washed with DPBS. Twenty μL per well of compounds diluted in dosing media were transferred from the compound plate to the cell plate and the compounds were further diluted with an additional 15 μL of dosing media in the cell plate: the cell plate was incubated for two hours at 37° C. After two hours, STAT6 activity was stimulated with the addition of 5 μL per well of IL-13 (R&D Systems) in dosing media with a final concentration of 0.12 nM IL13. Cells were incubated at 37° C. for 4 hours to allow for reporter gene expression, then all media was removed from the plate. The cell plates were treated with assay buffer and Luciferase substrate from Nano-Glo Luciferase Assay Kit for 15 min and then measured for luminescence on an EnVision 2105 multilabel reader (PerkinElmer).

Compared with `CC(C)n1nc(C(=O)NCc2ccc(NC(=O)N3CCN(C)CC3)cc2)c2c1[C@@H](C)CN(c1ccc3c(c1)OCCN(C)C3=O)C2` [Example 657, (S)-1-isopropyl-7-methyl-5-(4-methyl-5-oxo-2,3,4,5-tetrahydrobenzo[f][1,4]oxazepin-8-yl)-N-(4-(4-methylpiperazine-1-carboxamido)benzyl)-4,5,6,7-tetrahydro-1H-pyrazolo[4,3-c]pyridine-3-carboxamide], `Cc1nn(C)c(=O)n1-c1ccc(N2Cc3c(C(=O)NCc4ccc(NC(=O)N5CCN(C)CC5)cc4)nn(C(C)C)c3[C@@H](C)C2)nc1` [Example 613, (S)-5-(5-(1,3-dimethyl-5-oxo-1,5-dihydro-4H-1,2,4-triazol-4-yl)pyridin-2-yl)-1-isopropyl-7-methyl-N-(4-(4-methylpiperazine-1-carboxamido)benzyl)-4,5,6,7-tetrahydro-1H-pyrazolo[4,3-c]pyridine-3-carboxamide] is 1.5-fold higher in EC50: 2 nM for the first, 3 nM for the second. The first is the more potent here.

Compared with `CC(C)n1nc(C(=O)NCc2ccc(NC(=O)N3CC[C@@H](N(C)C)C3)c(F)c2)c2c1[C@@H](C)CN(c1ccc(C(=O)N(C)C)cc1)C2` [Example 678, (S)-N-(4-((R)-3-(dimethylamino)pyrrolidine-1-carboxamido)-3-fluorobenzyl)-5-(4-(dimethylcarbamoyl)phenyl)-1-isopropyl-7-methyl-4,5,6,7-tetrahydro-1H-pyrazolo[4,3-c]pyridine-3-carboxamide], `CC(C)n1nc(C(=O)NCc2ccc(NC(=O)N3CCN4CCCC[C@H]4C3)c(F)c2)c2c1[C@@H](C)CN(c1ccc(C(=O)N(C)C)cc1)C2` [Example 640, (S)-N-(4-(((S)-5-(4-(dimethylcarbamoyl)phenyl)-1-isopropyl-7-methyl-4,5,6,7-tetrahydro-1H-pyrazolo[4,3-c]pyridine-3-carboxamido)methyl)-2-fluorophenyl)octahydro-2H-pyrido[1,2-a]lpyrazine-2-carboxamide] is 3-fold lower in EC50: 3 nM for the first, 1 nM for the second. The second is the more potent here.

First: CC(C)n1nc(C(=O)NCc2ccc(NC(=O)N(C)C)cc2)c2c1CCN(c1ccc(C(=O)N3CCCC(O)C3)cn1)C2 (racemic) [Example 220, rac-(R)-N-(4-(3,3-dimethylureido)benzyl)-5-(5-(3-hydroxypiperidine-1-carbonyl)pyridin-2-yl)-1-isopropyl-4,5,6,7-tetrahydro-1H-pyrazolo[4,3-c]pyridine-3-carboxamide]
Second: CC(C)n1nc(C(=O)NCc2ccc(NC(=O)N(C)C)cc2)c2c1CCN(c1ccc(C(=O)N3CC4CC(C3)C4O)cn1)C2 (stereo not shown) [Example 243, N-(4-(3,3-dimethylureido)benzyl)-5-(5-(6-hydroxy-3-azabicyclo[3.1.1]heptane-3-carbonyl)pyridin-2-yl)-1-isopropyl-4,5,6,7-tetrahydro-1H-pyrazolo[4,3-c]pyridine-3-carboxamide]
The EC50 of the first is 4.9-fold lower: 336 nM for the first, 1650 nM for the second.

`CC(C)n1nc(C(=O)NCc2ccc(NC(=O)N(C)C)cc2)c2c1CCN(c1ccc(C(=O)N3CCn4ccnc4C3)cn1)C2` [Example 372, N-(4-(3,3-dimethylureido)benzyl)-1-isopropyl-5-(5-(5,6,7,8-tetrahydroimidazo[1,2-a]pyrazine-7-carbonyl)pyridin-2-yl)-4,5,6,7-tetrahydro-1H-pyrazolo[4,3-c]pyridine-3-carboxamide] and `Cc1nn(C)c2c1CCN(C(=O)c1ccc(N3CCc4c(c(C(=O)NCc5ccc(NC(=O)N(C)C)cc5)nn4C(C)C)C3)nc1)C2` [Example 418, 5-(5-(1,3-dimethyl-4,5,6,7-tetrahydro-1H-pyrazolo[3,4-c]pyridine-6-carbonyl)pyridin-2-yl)-N-(4-(3,3-dimethylureido)benzyl)-1-isopropyl-4,5,6,7-tetrahydro-1H-pyrazolo[4,3-c]pyridine-3-carboxamide] are within 1.5-fold of each other in EC50: 59 nM for the first, 61 nM for the second.

Going from `CC(C)n1nc(C(=O)NCc2ccc(NC(=O)N(C)C)cc2)c2c1CCN(c1ccc(C(=O)N3CC4(CCC(=O)N4)C3)cn1)C2` [Example 298, N-(4-(3,3-dimethylureido)benzyl)-1-isopropyl-5-(5-(6-oxo-2,5-diazaspiro[3.4]octane-2-carbonyl)pyridin-2-yl)-4,5,6,7-tetrahydro-1H-pyrazolo[4,3-c]pyridine-3-carboxamide] to `CC(C)n1nc(C(=O)NCc2ccc(NC(=O)N(C)C)cc2)c2c1CCN(c1ccc(C(=O)N3CC(=O)NC(C)(C)C3)cn1)C2` [Example 294, 5-(5-(3,3-dimethyl-5-oxopiperazine-1-carbonyl)pyridin-2-yl)-N-(4-(3,3-dimethylureido)benzyl)-1-isopropyl-4,5,6,7-tetrahydro-1H-pyrazolo[4,3-c]pyridine-3-carboxamide], the EC50 falls from 2540 nM to 961 nM (2.6-fold).

`CC(C)n1nc(C(=O)NCc2ccc(NC(=O)N3CCN4CCC[C@@H]4C3)c(F)c2)c2c1[C@@H](C)CN(c1ccc(C(=O)N(C)C)cn1)C2` [Example 690, (S)-5-(5-(dimethylcarbamoyl)pyridin-2-yl)-N-(3-fluoro-4-((R)-octahydropyrrolo[1,2-a]lpyrazine-2-carboxamido)benzyl)-1-isopropyl-7-methyl-4,5,6,7-tetrahydro-1H-pyrazolo[4,3-c]pyridine-3-carboxamide] and `COC[C@H]1CN(C(=O)Nc2ccc(CNC(=O)c3nn(C(C)C)c4c3CN(c3ccc(C(=O)N(C)C)cn3)C[C@@H]4C)cc2F)CCN1` [Example 688, (S)-5-(5-(dimethylcarbamoyl)pyridin-2-yl)-N-(3-fluoro-4-((R)-3-(methoxymethyl)piperazine-1-carboxamido)benzyl)-1-isopropyl-7-methyl-4,5,6,7-tetrahydro-1H-pyrazolo[4,3-c]pyridine-3-carboxamide] are the same in EC50: 1 nM for the first, 1 nM for the second.

First: CC(C)n1nc(C(=O)NCc2ccc(NC(=O)N3CCC(C)(N(C)C)C3)cc2)c2c1[C@@H](C)CN(c1ccc(C(=O)N(C)C)cc1)C2 (stereo partly drawn) [Example 752, (7S)-N-(4-(3-(dimethylamino)-3-methylpyrrolidine-1-carboxamido)benzyl)-5-(4-(dimethylcarbamoyl)phenyl)-1-isopropyl-7-methyl-4,5,6,7-tetrahydro-1H-pyrazolo[4,3-c]pyridine-3-carboxamide]
Second: CC(C)n1nc(C(=O)NCc2ccc(NC(=O)N3CCC4(CCN(C)C4)CC3)c(F)c2)c2c1[C@@H](C)CN(c1ccc(C(=O)N(C)C)cc1)C2 [Example 642, (S)-N-(4-((5-(4-(dimethylcarbamoyl)phenyl)-1-isopropyl-7-methyl-4,5,6,7-tetrahydro-1H-pyrazolo[4,3-c]pyridine-3-carboxamido)methyl)-2-fluorophenyl)-2-methyl-2,8-diazaspiro[4.5]decane-8-carboxamide]
The EC50 of the first is 2-fold higher: 2 nM for the first, 1 nM for the second.

Going from `CC(C)n1nc(C(=O)NCc2ccc(NC(=O)N(C)C)cc2)c2c1CCN(c1ccc(C(=O)N3C[C@H]4CCO[C@H]4C3)cn1)C2` (racemic) [Example 331, rac-N-(4-(3,3-dimethylureido)benzyl)-5-(5-((3aR,6aR)-hexahydro-2H-furo[2,3-c]pyrrole-5-carbonyl)pyridin-2-yl)-1-isopropyl-4,5,6,7-tetrahydro-1H-pyrazolo[4,3-c]pyridine-3-carboxamide] to `CC(C)n1nc(C(=O)NCc2ccc(NC(=O)N3CCN(C)CC3)cc2)c2c1C(C(F)(F)F)CN(c1ccc(C(=O)N(C)C)cn1)C2` (racemic) [Example 701, rac-(R)-5-(5-(dimethylcarbamoyl)pyridin-2-yl)-1-isopropyl-N-(4-(4-methylpiperazine-1-carboxamido)benzyl)-7-(trifluoromethyl)-4,5,6,7-tetrahydro-1H-pyrazolo[4,3-c]pyridine-3-carboxamide], the EC50 falls from 606 nM to 0.4 nM (1500-fold).
